Where “and” joins values, the source holds several entries; their conditions need not be identical. Equal entries are not always repeated.
Legend:
KPC PDAC tumors = test: FITC-dextran (10 kDa) perfusion imaging, KPC tumors; type: in vivo, mouse; conditions: for FITC-dextran (10 kDa) signal quantification: Extended Data 5C, KPC tumour endpoint, individual FOV, 5xFOV per tumour
Method: FITC-dextran (10 kDa) was administered at 40 mg ml^−1 in saline via tail vain 2 h before culling. Excised tumors were flash-frozen in OCT and cryosectioned at 14 μm. Sections were counterstained with 4,6-diamidino-2-phenylindole (DAPI) and images were collected using a Leica DMI5500 (×40 magnification). Images were quantified using Fiji Software for Integrated Density Signal.
Extended Data Fig. 5 PXS-5505 in combination with gemcitabine in vivo. a. […] Signal is defined as the enzyme activity in the aorta, while noise is measured in the presence of a high concentration (300 µM) BAPN to abolish any lysyl oxidase family activity. […] Data presented as mean values +/− SD b. […] Data presented as mean values +/− SD. c. FITC-dextran (molecular weight: 10 kDa) signal quantification from KPC tumor end point from each treatment group (vehicle n = 3 biologically independent animals, PXS-5505 n = 5 biologically independent animals, Gem n = 5 biologically independent animals, PXS-5505 + Gem n = 5 biologically independent animals). […] P-values determined by Welchs t-test. Data presented as mean values +/− SD. Scale bars = 100 μm d. Quantification of red birefringent (mature) collagen fibers from human PDXs at end point after 3 cycles of treatment, treated as indicated. […] Quantification of bulk modulus (stiffness) by unconfined compression testing of end point human PDX tumors from each treatment group (vehicle n = 5 biologically independent animals, Gem n = 5 biologically independent animals, PXS-5505 n = 5 biologically independent animals, PXS-5505 + Gem n = 5 biologically independent animals) [individual tumors shown]). […] FITC-dextran (molecular weight 10 kDa) signal quantification from human PDXs from each treatment group (vehicle n = 4 biologically independent animals, PXS-5505 n = 5 biologically independent animals, Gem n = 5 biologically independent animals, PXS-5505 + Gem n = 5 biologically independent animals). […] P values determined by Welchs t-test. g. […] Quantification of green birefringent (nascent) collagen fibers from human PDXs at end point, treated as indicated. […]

APMA human PDX tumors = test: APMA human PDX model, bulk modulus by unconfined compression (Extended Data Fig. 5j); type: in vivo, mouse; parameters: Bulk modulus (stiffness) by unconfined compression testing: unit: kPa (bulk elastic modulus, slope of stress–strain curve); conditions: for Bulk modulus (stiffness) by unconfined compression testing: Extended Data 5J, endpoint human PDX tumours (second model), individual animals
Method: Unconfined compression of in vivo tissue samples was carried out on 2–3-mm cross-sectional slices using a TA Instruments Dynamic Hybrid Rheometer (DHR-3, TA Instruments). Tissue samples were placed between upper and lower parallel plate geometries. A constant linear compressive rate of 5 µm s^−1 was applied to the samples and axial force (N) and gap (mm) were collected every 0.01 s. Data were processed and a stress–strain curve for each replicate was obtained. Bulk elastic modulus (kPa) was obtained as the gradient of the linear region of the stress–strain curve corrected for cross-sectional area of sample. Data points represent individual biological replicates.
Subcutaneous PDX studies were performed by implanting early passage PDX pieces (~4 mm^3) or TKCC10 CCs (1.5 × 10^6 cells per mouse in 100 μl PBS/Matrigel 1:1) into female (PDX) or male (TKCC10) 8-week-old immunocompromised nude Balb/c-Fox1nuAusb mice subcutaneously on the left flank. For the duration of the study, mice were kept in conventional caging with environmental enrichment, access to standard chow, water ad libitum and 12-h light–dark cycle at ambient temperature and humidity. […] Tumor size was monitored every second day by calipers. Tumor volume was calculated using the formula (length × width^2)/2. […]
Extended Data Fig. 5 PXS-5505 in combination with gemcitabine in vivo. a. […] Signal is defined as the enzyme activity in the aorta, while noise is measured in the presence of a high concentration (300 µM) BAPN to abolish any lysyl oxidase family activity. […] FITC-dextran (molecular weight: 10 kDa) signal quantification from KPC tumor end point from each treatment group (vehicle n = 3 biologically independent animals, PXS-5505 n = 5 biologically independent animals, Gem n = 5 biologically independent animals, PXS-5505 + Gem n = 5 biologically independent animals). […] P-values determined by Welchs t-test. […] Quantification of red birefringent (mature) collagen fibers from human PDXs at end point after 3 cycles of treatment, treated as indicated. […] P values determined by Welchs t-test. g. […]

Structure (SMILES) | FITC-dextran (10 kDa) signal quantification (KPC PDAC tumors) | Bulk modulus (stiffness) by unconfined compression testing (APMA human PDX tumors) | FITC-dextran signal (tumor perfusion) (KPC PDAC tumors; KPC tumors at end point) | tumor stiffness (APMA human PDX tumors; APMA human PDX, three rounds of treatment)
Cl.Cl.NC/C=C(\F)CS(=O)(=O)c1cccc2cccnc12.O [PXS-5505, (Z)-3-fluoro-4-(quinolin-8-ylsulfonyl)but-2-en-1-amine dihydrochloride monohydrate] | 643536 and 877109 and 855018 and 639402 and 1028780 and 1101294 and 1096543 and 614729 and 1678517 and 411292 and 888855 and 96222 and 332580 and 192955 and 224263 and 475860 and 248857 and 803743 and 104073 and 736895 | 1.617 and 12.779 and 4.886 and 20.468 and 19.194 and 15.624 and 4.142 and 7.216 and 19.443 |  | 
Nc1ccn([C@@H]2O[C@H](CO)[C@@H](O)C2(F)F)c(=O)n1 [Gem, gemcitabine] | 60068 and 66083 and 67045 and 264388 and 103749 and 136715 and 44993 and 342971 and 570220 and 195046 and 425899 and 308368 and 729076 and 598797 and 690249 and 193339 and 215616 and 99212 and 74761 and 57841 | 269.794 and 256.26 and 76.734 and 111.802 and 206.587 and 133.731 and 307.593 and 168.407 and 179.416 and 246.898 | significantly reduced FITC signal | increase in tumor stiffness

Reference: publication PMC10518255, “A first-in-class pan-lysyl oxidase inhibitor impairs stromal remodeling and enhances gemcitabine response and survival in pancreatic cancer” (Nature Cancer, 2023)
